These results are taken from patent publication US20120316199A1, “COMPOSITIONS AND METHODS FOR TREATING, CONTROLLING, REDUCING, OR AMELIORATING INFLAMMATORY PAIN” (priority 2011, published 2012).

“And” between values parts separate entries of the source, which are not always exact repeats. Equal values may be shown once.

What all share (format): in vivo, Rabbit (New Zealand)
The test system of one assay is pupillary diameter. The experiment in a line: Pupillary diameter measurement, rabbit paracentesis model. To be noted: 0.5% formulation.
For assay [1], the system named is iris and conjunctival vessels, anterior chamber. Briefly: Clinical evaluation by slit lamp (clinical score), rabbit paracentesis model. Also noted: key to Clinical Score −180 min / Clinical Score −5 min / Clinical Score +115 min: 0=normal; 1=discrete dilatation of iris and conjunctival vessels; 2=moderate dilatation of iris and conjunctival vessels; 3=intense iridal hyperemia with flare in the anterior chamber; 4=intense iridal hyperemia with flare in the anterior chamber and presence of fibrinous exudates. The following applies: 0.5% formulation.

Assay [2] concerns PGE2 in the aqueous humor. The experiment in a line: Prostaglandin E2 (PGE2) measurement in aqueous humor, rabbit paracentesis model. The following applies: 0.5% formulation. On the procedure:
(§1) Each rabbit was placed in a restraint device and tagged with the alphanumeric code. The formulations were instilled (50 μl) into the conjunctival sac of both eyes 180, 120, 90 and 30 min before the first paracentesis; then 15, 30, 90 min after the first paracentesis. To perform the first paracentesis the animals were anaesthetized by intravenous injection of 5 mg/kg Zoletil® (Virbac; 2.5 mg/kg tiletamine HCl and 2.5 mg/kg zolazepam HCl) and one drop of local anesthetic (Novesina®, Novartis) was administered to the eye. Anterior chamber paracentesis was performed with a 26 G needle attached to a tuberculin syringe; the needle was introduced into the anterior chamber through the cornea, taking care not to damage the tissues. Two hours after the first paracentesis, the animals were sacrificed with 0.4 ml Tanax® (Intervet International B.V.) and the second paracentesis was performed. About 100 μl of aqueous humor were removed at the second paracentesis. Aqueous humor was immediately split in four aliquots and stored at −80° C. until analysis. Then both eyes were enucleated and the iris-ciliary body was carefully excised, placed in polypropylene tubes, and stored at −80° C. until analysis.
For the quantitative determination of PGE2 in the aqueous humor we used the PGE2 Immunoassay kit (R&D Systems; Cat. No. KGE004; Lot. No. 240010). Eleven microliters or 16 μl of aqueous humor were diluted to 110 μl or 160 μl with the calibrator diluent solution provided with the kit. One hundred microliters of samples and of standards were load into a 96-well plate and recorded in a plate layout. Samples were treated following the assay procedure described in the kit. A microplate reader (GDV, Italy; model DV 990 B/V6) set at 450 nm (wavelength correction at 540 nm) was used for making the calibration and analyzing the samples.
(§2) Pupillary diameter, PGE2, protein, PMN, and MPO were expressed as mean±SEM. Statistical analysis was performed using one way ANOVA followed by a Newman-Keuls post hoc test. Clinical score was expressed as % of eyes and the statistical analysis was performed using Kruskal-Wallis followed by a Dunn post hoc test. P<0.05 was considered statistically significant in both cases. Prism 4 software (GraphPad Software, Inc.) was used for the analysis and graphs.

The test system of assay [3] is protein concentration in the aqueous humor. Briefly: Protein measurement in aqueous humor, rabbit paracentesis model. The following applies: 0.5% formulation, second paracentesis. On the procedure:
as §1
For protein concentration determination in the aqueous humor we used the Protein Quantification Kit (Fluka; Cat. No. 77371; Lot. No. 1303129). Five microliters of aqueous humor were diluted to 100 μl with water. Twenty microliters of samples and of standards were load into a 96-well plate and recorded in a plate layout. Samples were treated following the assay procedure described in the kit. A microplate reader (GDV, Italy; model DV 990 B/V6) set at 670 nm was used for making the calibration and analyzing the samples.
as §2

Assay [4] relates to leukocytes (PMN) in aqueous humor. Briefly: Leukocytes (PMN) measurement in aqueous humor, rabbit paracentesis model. To be noted: 0.5% formulation; second paracentesis; group mean. On the procedure: as §1
For the determination of the number of leukocytes we used a haernocytometer (Improved Neubauer Chamber; Bright-line, Hausser Scientific) and a Polyvar 2 microscope (Reichert-Jung).
as §2

The subject of assay [5] is MPO activity in iris-ciliary body. The experiment in a line: Myeloperoxidase (MPO) activity in iris-ciliary body, rabbit paracentesis model. On the procedure: as §1
The activity of MPO was measured as previously described by Williams et al.[5] The iris-ciliary bodies were carefully dried, weighed and immersed in 1 ml of hexa-decyl-trimethyl-ammonium bromide solution. Then, the samples were sonicated for 10 sec on ice by a ultrasound homogenizer (HD 2070, Bandelin electronic), freeze-thawed three times, sonicated for 10 sec and centrifuged at 14,000 g for 10 min to remove cellular debris. An aliquot of the supernatant (40-200 μl) was diluted to 3 ml with the o-dianisidine 2HCl/H2O2 solution. The change in absorbance at 460 nm was continuously monitored for 5 min by a spectrophotometer (UV/Vis Spectrometer Lambda EZ 201; Perkin Elmer). The slope of the line (Δ/min) was determined for each sample and used to calculate the number of units of MPO in the tissue as follows:
Values were expressed as units of MPO/g of tissue.
as §2

[6] abbreviates: 5 min before the first paracentesis, raw data per eye.
Setting [7] is: 5 min before the second paracentesis, raw data per eye.

With `CCOC(=O)O[C@]1(C(=O)OCCl)CC[C@H]2[C@@H]3CCC4=CC(=O)C=C[C@]4(C)[C@H]3[C@@H](O)C[C@@]21C` [LE, loteprednol etabonate], in the assay on pupillary diameter (setting [6]), the “Pupillary diameter T2: −5 min” value was 6.0 mm and 6.5 mm. In the assay on pupillary diameter (setting [7]), the “Pupillary diameter T3: +115 min” value was 4.5 mm and 5.0 mm and 5.5 mm and 6.0 mm. The “Pupillary diameter T1: −180 min” value with pupillary diameter (basal, raw data per eye) was 6.0 mm and 6.5 mm. In addition, the “Mean (mm) Δ(T3 − T1) of pupillary diameter” value with pupillary diameter (group mean, n=8 eyes) was −0.9 mm. Besides, in assay [1] (setting [6]), the “Clinical Score −5 min” value came out at 0. Besides, the “Clinical Score +115 min” value in assay [1] (setting [7]) is 2 and 1. Moreover, the “Percentage of eyes with clinical score 1” value in assay [1] (+115 min, N=8 eyes) is given as 75%. In addition, the “Percentage of eyes with clinical score 2” value in assay [1] (+115 min, N=8 eyes) is given as 25%. Also, the “Clinical Score −180 min” value in assay [1] (basal, raw data per eye) is 0. In assay [1] (p<0.05, Kruskal-Wallis, Dunn), the “Clinical score, difference versus CTR (vehicle)” value is given as “significant difference versus CTR”. Moreover, the “Percentage of eyes with clinical score 0” value in assay [1] (−5 min, N=8 eyes) came to 100%; in assay [1] (−180 min (basal), N=8 eyes), 100%. Further, in assay [2] (p<0.05), the “PGE2 in aqueous humor, statistical significance versus CTR” value is given as “statistically significant versus CTR”. For the same compound, the “PGE2 level in aqueous humor, Mean” value in assay [2] (second paracentesis, group mean) was determined as 0.672 ng/mL. For the same compound, the “Protein level in aqueous humor, Mean” value in assay [3] (group mean) was determined as 33.905 mg/mL. Moreover, the “Protein level in aqueous humor, raw data” value in assay [3] (per eye) was 36.14 mg/mL and 39.10 mg/mL and 34.69 mg/mL and 26.10 mg/mL and 26.30 mg/mL and 28.16 mg/mL and 40.90 mg/mL and 39.85 mg/mL. Moreover, the “PMN numbers in aqueous humor, Mean” value in assay [4] turned out to be 28.333 number/μl. Also, the “MPO activity in iris-ciliary body” value in assay [5] (0.5% LE, individual samples collected after the second paracentesis) came out at 1.01 Unit/g. Moreover, the “MPO activity in iris-ciliary body, Mean” value in assay [5] (0.5% formulation, after the second paracentesis, group mean) amounted to 0.661 MPO Unit/g.
